From US20150313837A1, “POLYMERIC HYDROGEL COMPOSITIONS WHICH RELEASE ACTIVE AGENTS IN RESPONSE TO ELECTRICAL STIMULUS” (University of Witwatersrand, Johannesburg, priority 2010, published 2015)

Experiment: Drug leakage from hydrogel in PBS in absence of electric current
Assay type: physicochemical
Conditions: comparison of drugs loaded in the hydrogel
Procedure: The indomethacin-loaded hydrogels were left in […] PBS for 12 hours, and a 1 mL sample was then taken in order to assess for any drug release prior to exposure to an electric current. […] Further tests for drug release of the indomethacin-loaded hydrogels in the presence of an electric current were performed.
The system was therefore left in 50 mL of PBS for 12 hours, and 1 mL sample was taken and assessed for any presence of drugs. […] The hydrogels were then then assessed for their drug release capacity. They were once again immersed in PBS and an electric current was passed through them. This time, 35 samples were extracted and assessed by UV/visible spectroscopy for the amount of drugs which were released.
The amount of drug released ranged from 0.081 mg to 0.160 mg. The hydrogel was then assessed one last time for any leakage of drugs. The hydrogel was immersed in 50 mL of PBS for 12 hours.
One possible explanation for this phenomenon is the larger molecular size of indomethacin as compared to diclofenac sodium and ibuprofen. This larger molecular size means that indomethacin is better entrapped inside the three dimensional network of the hydrogel system.

## O=C(O)Cc1ccccc1Nc1c(Cl)cccc1Cl [Diclofenac sodium]
  leakage of loaded drug from hydrogel when no electric current is applied: drug leakage may still have occurred on the surface

## COc1ccc2c(c1)c(CC(=O)O)c(C)n2C(=O)c1ccc(Cl)cc1 [indomethacin]
  leakage of loaded drug from hydrogel when no electric current is applied: no leakage occurred

## CC(C)Cc1ccc(C(C)C(=O)O)cc1 (stereo not drawn) [ibuprofen]
  leakage of loaded drug from hydrogel when no electric current is applied: drug leakage may still have occurred on the surface
